The values below come from patent publication US20250092039A1, “GLUTARIMIDE-CONTAINING PAN-KRAS-MUTANT DEGRADER COMPOUNDS AND USES THEREOF” (Tiger Biotherapeutics Inc., priority 2022, published 2025).

In one assay the target is KRAS-G12V/RAF1 (Homo sapiens (Human), UniProt P01116, G12V). Briefly: KRAS/RAF1 binding inhibition assay (AlphaScreen). The method, boiled down: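 IC50 comes from variable-slope nonlinear fits of % inhibition (relative to DMSO) against inhibitor concentration. The AlphaScreen signal tracks the interaction of GppNHp-bound KRAS G12V with the RAF1 RBD after 60 min at 4° C with compound in 2% DMSO final.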
Sequence of KRAS-G12V/RAF1 (P01116-2 other isoform, or with tags, fused parts or gaps G12V): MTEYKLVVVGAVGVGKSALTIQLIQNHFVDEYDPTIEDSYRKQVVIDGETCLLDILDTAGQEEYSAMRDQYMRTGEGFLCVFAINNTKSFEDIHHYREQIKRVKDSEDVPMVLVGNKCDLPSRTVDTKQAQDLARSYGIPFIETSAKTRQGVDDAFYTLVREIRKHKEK

Another assay addresses KRAS G12V (Homo sapiens (Human), UniProt P01116, G12V). Briefly: KRAS G12V degradation in SW620 cells (Western blot, DC50). It counts as cell-based. The note with it: 24 hours. The method, boiled down: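 KRAS levels were quantified by fluorescent Western blot as percent of the DMSO control after 24 h of compound exposure at 37° C in homozygous KRAS G12V SW620 cells. A four-parameter variable-slope fit of the dose-response gave the half-maximal degradation concentration.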
On the technique in general: A western blot detects proteins with antibodies after separation by electrophoresis.

A further assay relates to SW620 cells. Briefly: 3D cell growth inhibition of SW620 cells carrying endogenous KRAS G12V mutation (CellTiter-Glo 3D, GI50). It counts as cell-based. The note with it: Homo sapiens, SW-620, 144 h, read-out: SW620 3D cell growth GI50. The method, boiled down:
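[…], compound exposure lasted 6 days at 37° C, added the day after plating from DMSO stocks over a concentration range. Cells: SW620, KRAS G12V, 3D culture.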

Like-named read-outs stand apart in the source and are kept apart here.

Sequence of KRAS G12V (P01116-2 other isoform, or with tags, fused parts or gaps G12V): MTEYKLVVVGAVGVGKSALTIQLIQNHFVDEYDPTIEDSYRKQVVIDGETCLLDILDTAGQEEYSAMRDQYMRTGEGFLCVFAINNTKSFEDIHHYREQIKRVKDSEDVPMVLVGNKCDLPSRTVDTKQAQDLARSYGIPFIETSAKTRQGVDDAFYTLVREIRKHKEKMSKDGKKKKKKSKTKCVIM

For orientation: IC50 means the midpoint of a concentration-inhibition curve. High values mean weaker potency in that assay, low ones greater potency in that assay. A word on the DC50: it is the concentration giving 50% degradation. The term GI50 denotes the concentration at which growth is held to half of that of the control. For the compound `CCc1c(F)ccc2cc(O)cc(-c3ncc4c(N5CCC[C@@](C)(O)C5)nc(OCC5(CN6CCC7(CCN(CCc8cc(F)c(C9CCC(=O)NC9=O)c(F)c8)CC7)CC6)CC5)nc4c3F)c12` (stereo partly drawn) [Compound 56, 3-(4-(2-(9-((1-(((7-(8-ethyl-7-fluoro-3-hydroxynaphthalen-1-yl)-8-fluoro-4-((R)-3-hydroxy-3-methylpiperidin-1-yl)pyrido[4,3-d]pyrimidin-2-yl)oxy)methyl)cyclopropyl)methyl)-3,9-diazaspiro[5.5]undecan-3-yl)ethyl)-2,6-difluorophenyl) piperidine-2,6-dione], at KRAS-G12V/RAF1, the IC50 was less than 20 nM. The compound also showed a DC50 at KRAS G12V of 1 to 10 nM. Also, the GI50 with SW620 cells is less than 10 nM.

Take `CCc1c(F)ccc2cc(O)cc(-c3ncc4c(NCC5(N(C)C)CCC5)nc(OCC5(CN6CCC7(CC6)CC(CN6CCN(c8ccc9c(c8)CN([C@H]8CCC(=O)NC8=O)C9=O)CC6)C7)CC5)nc4c3F)c12` [Compound 3, (S)-3-(5-(4-((7-((1-(((4-(((1-(dimethylamino)cyclobutyl)methyl)amino)-7-(8-ethyl-7-fluoro-3-hydroxynaphthalen-1-yl)-8-fluoropyrido[4,3-d]pyrimidin-2-yl)oxy)methyl)cyclopropyl)methyl)-7-azaspiro[3.5]nonan-2-yl)methyl)piperazin-1-yl)-1-oxoisoindolin-2-yl)piperidine-2,6-dione]: the IC50 on KRAS-G12V/RAF1 is greater than 200 nM. Besides, the DC50 at KRAS G12V is greater than 100 nM. In addition, the GI50 in the assay on SW620 cells (SW620 cells, 6 days) is greater than 100 nM.

On to `CCc1cccc2cc(O)cc(-c3ncc4c(N5CCC[C@@](C)(O)C5)nc(OCC5(CN6CCC(OC7CC8(CCN(c9ccc%10c(c9)CN(C9CCC(=O)NC9=O)C%10=O)CC8)C7)CC6)CC5)nc4c3F)c12` (stereo partly drawn) [Compound 181, 3-(5-(2-((1-((1-(((7-(8-ethyl-3-hydroxynaphthalen-1-yl)-8-fluoro-4-((R)-3-hydroxy-3-methylpiperidin-1-yl)pyrido[4,3-d]pyrimidin-2-yl)oxy)methyl)cyclopropyl)methyl)piperidin-4-yl)oxy)-7-azaspiro[3.5]nonan-7-yl)-1-oxoisoindolin-2-yl)piperidine-2,6-dione], for which the IC50 on KRAS-G12V/RAF1 was greater than 200 nM. The compound further had a 50% degradation concentration (DC50) on KRAS G12V of less than 1 nM. Moreover, in the assay on SW620 cells (SW620 cells, 6 days), the 50% growth inhibitory concentration (GI50) was less than 10 nM.

`CCc1c(F)ccc2cc(O)cc(-c3ncc4c(N5CCC[C@@](C)(O)C5)nc(OCC5(CN6CCC7(CC6)CC(C6CCN(c8ccc9c(c8)CN(C8CCC(=O)NC8=O)C9=O)CC6)C7)CC5)nc4c3F)c12` (stereo partly drawn) [Compound 186, 3-(5-(4-(7-((1-(((7-(8-ethyl-7-fluoro-3-hydroxynaphthalen-1-yl)-8-fluoro-4-((R)-3-hydroxy-3-methylpiperidin-1-yl)pyrido[4,3-d]pyrimidin-2-yl)oxy)methyl)cyclopropyl)methyl)-7-azaspiro[3.5]nonan-2-yl)piperidin-1-yl)-1-oxoisoindolin-2-yl)piperidine-2,6-dione] showed an IC50 on KRAS-G12V/RAF1 greater than 200 nM. The compound also gave a DC50 on KRAS G12V of less than 1 nM. Moreover, in the assay with SW620 cells (SW620 cells, 6 days), the GI50 was less than 10 nM.

At KRAS-G12V/RAF1, `CCc1c(F)ccc2cc(O)cc(-c3ncc4c(N5CCC[C@@](C)(O)C5)nc(OCC5(CN6CCC(N7CC(N8CCN(c9ccc%10c(c9)CN([C@H]9CCC(=O)NC9=O)C%10=O)CC8)C7)CC6)CC5)nc4c3F)c12` [Compound 146, (S)-3-(5-(4-(1-(1-((1-(((7-(8-ethyl-7-fluoro-3-hydroxynaphthalen-1-yl)-8-fluoro-4-((R)-3-hydroxy-3-methylpiperidin-1-yl)pyrido[4,3-d]pyrimidin-2-yl)oxy)methyl)cyclopropyl)methyl)piperidin-4-yl)azetidin-3-yl)piperazin-1-yl)-1-oxoisoindolin-2-yl)piperidine-2,6-dione] yielded an IC50 of less than 20 nM. The compound further came in with a DC50 on KRAS G12V of less than 1 nM. Moreover, the GI50 in the assay on SW620 cells (SW620 cells, 6 days) is less than 10 nM.

Take `CCc1c(F)ccc2cc(O)cc(-c3ncc4c(N5CCC[C@@](C)(O)C5)nc(OCC5(CN6CCN(C7CC8(CCN(c9ccc%10c(c9)CN(C9CCC(=O)NC9=O)C%10=O)CC8)C7)CC6)CC5)nc4c3F)c12` (stereo partly drawn) [Compound 162, 3-[5-[2-[4-[[1-[[7-(8-ethyl-7-fluoro-3-hydroxy-1-naphthyl)-8-fluoro-4-[(3R)-3-hydroxy-3-methyl-1-piperidyl]pyrido[4,3-d]pyrimidin-2-yl]oxymethyl]cyclopropyl]methyl]piperazin-1-yl]-7-azaspiro[3.5]nonan-7-yl]-1-oxo-isoindolin-2-yl]piperidine-2,6-dione]: on KRAS-G12V/RAF1, the IC50 was 20 to 200 nM. The compound further registered a DC50 at KRAS G12V of less than 1 nM. The 50% growth inhibitory concentration (GI50) in the assay with SW620 cells (SW620 cells, 6 days) is less than 10 nM.

On KRAS-G12V/RAF1, `CCc1c(F)ccc2cc(O)cc(-c3ncc4c(N5CCC[C@@](C)(O)C5)nc(OCC5(CN6CC(N7CCC(N8CCN(c9ccc%10c(c9)CN([C@H]9CCC(=O)NC9=O)C%10=O)CC8)CC7)C6)CC5)nc4c3F)c12` [Compound 139, (S)-3-(5-(4-(1-(1-((1-(((7-(8-ethyl-7-fluoro-3-hydroxynaphthalen-1-yl)-8-fluoro-4-((R)-3-hydroxy-3-methylpiperidin-1-yl)pyrido[4,3-d]pyrimidin-2-yl)oxy)methyl)cyclopropyl)methyl)azetidin-3-yl)piperidin-4-yl)piperazin-1-yl)-1-oxoisoindolin-2-yl)piperidine-2,6-dione] registered an IC50 of less than 20 nM. The compound also registered a DC50 at KRAS G12V of less than 1 nM. Further, the GI50 in the assay on SW620 cells (SW620 cells, 6 days) was less than 10 nM.

In the case of `CCc1c(F)ccc2cc(O)cc(-c3ncc4c(N5CCC[C@@](C)(O)C5)nc(OCC5(CN6CC(N7CC(CN8CCN(c9ccc%10c(c9)CN([C@@H]9CCC(=O)NC9=O)C%10=O)CC8)C7)C6)CC5)nc4c3F)c12` [Compound 9, (R)-3-(5-(4-((1′-((1-(((7-(8-ethyl-7-fluoro-3-hydroxynaphthalen-1-yl)-8-fluoro-4-((R)-3-hydroxy-3-methylpiperidin-1-yl)pyrido[4,3-d]pyrimidin-2-yl)oxy)methyl)cyclopropyl)methyl)-[1,3′-biazetidin]-3-yl)methyl)piperazin-1-yl)-1-oxoisoindolin-2-yl)piperidine-2,6-dione], the IC50 at KRAS-G12V/RAF1 is less than 20 nM. For the same compound, on KRAS G12V, the DC50 was 1 to 10 nM. Also, the GI50 in the assay with SW620 cells (SW620 cells, 6 days) was in the range of 10 to 100 nM.

For `CCc1c(F)ccc2cc(O)cc(-c3ncc4c(N5CCC[C@@](C)(O)C5)nc(OCC5(CN6CC7(CCN(C8CCN(c9ccc%10c(c9)CN(C9CCC(=O)NC9=O)C%10=O)CC8)CC7)C6)CC5)nc4c3F)c12` (stereo partly drawn) [Compound 166, 3-(5-(4-(2-((1-(((7-(8-ethyl-7-fluoro-3-hydroxynaphthalen-1-yl)-8-fluoro-4-((R)-3-hydroxy-3-methylpiperidin-1-yl)pyrido[4,3-d]pyrimidin-2-yl)oxy)methyl)cyclopropyl)methyl)-2,7-diazaspiro[3.5]nonan-7-yl)piperidin-1-yl)-1-oxoisoindolin-2-yl)piperidine-2,6-dione], the IC50 on KRAS-G12V/RAF1 is less than 20 nM. Moreover, the DC50 on KRAS G12V is 1 to 10 nM. Moreover, the GI50 in the assay on SW620 cells (SW620 cells, 6 days) is greater than 100 nM.

The compound `CCc1c(F)ccc2cc(O)cc(-c3ncc4c(N5CCC[C@@](C)(O)C5)nc(OCC5(CN6CCC7(CC6)CC(OC6CCN(c8ccc9c(c8)CN(C8CCC(=O)NC8=O)C9=O)CC6)C7)CC5)nc4c3F)c12` (stereo partly drawn) [Compound 176, 3-(5-(4-((7-((1-(((7-(8-ethyl-7-fluoro-3-hydroxynaphthalen-1-yl)-8-fluoro-4-((R)-3-hydroxy-3-methylpiperidin-1-yl)pyrido[4,3-d]pyrimidin-2-yl)oxy)methyl)cyclopropyl)methyl)-7-azaspiro[3.5]nonan-2-yl)oxy)piperidin-1-yl)-1-oxoisoindolin-2-yl)piperidine-2,6-dione] had a concentration for half-maximal inhibition (IC50) at KRAS-G12V/RAF1 of 20 to 200 nM. At KRAS G12V, this compound displayed a DC50 of less than 1 nM. The GI50 in the assay with SW620 cells (SW620 cells, 6 days) is less than 10 nM.

As to `CCc1c(F)ccc2cc(O)cc(-c3ncc4c(N5CCCC(C)(O)C5)nc(OCC5(CN6CCC7(CC6)CCC(C)(N6CCN(c8ccc9c(c8)CN(C8CCC(=O)NC8=O)C9=O)CC6)CC7)CC5)nc4c3F)c12` (stereo in doubt) [Compound 167, 3-[5-[4-[3-[[1-[[7-(8-ethyl-7-fluoro-3-hydroxy-1-naphthyl)-8-fluoro-4-[(3R)-3-hydroxy-3-methyl-1-piperidyl]pyrido[4,3-d]pyrimidin-2-yl]oxymethyl]cyclopropyl]methyl]-9-methyl-3-azaspiro[5.5]undecan-9-yl]piperazin-1-yl]-1-oxo-isoindolin-2-yl]piperidine-2,6-dione], the IC50 at KRAS-G12V/RAF1 was less than 20 nM. Also, at KRAS G12V, the DC50 lay within 1 to 10 nM. Moreover, the concentration for 50% growth inhibition (GI50) with SW620 cells (SW620 cells, 6 days) is less than 10 nM.

With `CCc1c(F)ccc2cc(O)cc(-c3ncc4c(N5CCC[C@@](C)(O)C5)nc(OCC5(CN6CCC7(CC6)CC(C)(CN6CCN(c8ccc9c(c8)CN([C@H]8CCC(=O)NC8=O)C9=O)CC6)C7)CC5)nc4c3F)c12` [Compound 150, (3S)-3-[5-[4-[[7-[[1-[[7-(8-ethyl-7-fluoro-3-hydroxy-1-naphthyl)-8-fluoro-4-[(3R)-3-hydroxy-3-methyl-1-piperidyl]pyrido[4,3-d]pyrimidin-2-yl]oxymethyl]cyclopropyl]methyl]-2-methyl-7-azaspiro[3.5]nonan-2-yl]methyl]piperazin-1-yl]-1-oxo-isoindolin-2-yl]piperidine-2,6-dione], the IC50 on KRAS-G12V/RAF1 is 20 to 200 nM. The compound further showed a DC50 on KRAS G12V of less than 1 nM. Besides, the GI50 in the assay on SW620 cells (SW620 cells, 6 days) was less than 10 nM.
